Measurements from US20240043435A1, “TYK-2 INHIBITOR” (BEIGENE, LTD., priority 2020, published 2024).

Legend:
[1] = biological target: T1, TYK2-JH2 (aa 575-869, in-house) protein (Homo sapiens, UniProt P29597); experiment: TYK2-JH2 biochemical assay (HTRF probe displacement); format: binding; details: Biochemical assay; read-out: TYK2-JH2 IC50
T1 construct: TYK2-JH2 (aa 575-869, in-house) protein; made in house
Method in brief: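 Recombinant TYK2-JH2 (0.2 nM) was pre-incubated 0.5 h at room temperature with compounds (10 doses, 5-fold dilution; 500× DMSO stocks from 500 uM) in 20 mM HEPES pH 7.5, 10 mM MgCl2, 0.005% BSA, 2 mM DTT, 0.015% Brij-35. Probe displacement was read by HTRF (ex337, em620/665 nm); IC50 from four-parameter logistic fit.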

[2] = tested on: JAK2, TYK2/p-STAT4 (Tyr693) activated by IL-12 in NK-92 cell line; experiment: IL-12-JAK2, TYK2/p-STAT4 (Tyr693) inhibition IC50 cellular assay; format: cell-based; details: for IC50: NK92, Cellular assay, read-out: pSTAT4/IL-12 IC50; for Selectivity fold (TYK2/JAK2): Cellular assay, pSTAT5/GM-CSF IC50 vs pSTAT4/IL-12 IC50
Method in brief: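 NK-92 cells were starved overnight without IL-2 and preincubated 1 h at 37° C with compound (8 doses, 10000–0.61 nM, 4-fold, 0.2% DMSO). They were then stimulated with IL-12 (40 ng/ml final) for 30 min. Lysate p-STAT4 (Tyr693) was read by AlphaLISA SureFire; IC50 from four-parameter logistic fit.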

pSTAT5/GM-CSF = pSTAT5/GM-CSF cellular assay (JAK2 selectivity); format: cell-based; details: for Selectivity fold (TYK2/JAK2): pSTAT5/GM-CSF IC50 over pSTAT4/IL-12 IC50

T1 sequence (P29597 575-869): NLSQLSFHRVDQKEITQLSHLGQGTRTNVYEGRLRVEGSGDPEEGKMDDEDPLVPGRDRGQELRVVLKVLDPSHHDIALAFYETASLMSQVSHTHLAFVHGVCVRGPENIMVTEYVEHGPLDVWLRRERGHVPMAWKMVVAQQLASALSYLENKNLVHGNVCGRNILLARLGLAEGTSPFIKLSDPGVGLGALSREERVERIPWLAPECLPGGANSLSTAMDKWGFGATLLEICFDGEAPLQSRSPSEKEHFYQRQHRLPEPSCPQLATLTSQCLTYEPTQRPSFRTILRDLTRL

| Compound | IC50 [1] [nM] | IC50 [2] [nM] | IC50 (pSTAT5/GM-CSF) [nM] | Selectivity fold (TYK2/JAK2) (pSTAT5/GM-CSF) [fold] | Selectivity fold (TYK2/JAK2) [2] [fold] |
| --- | --- | --- | --- | --- | --- |
| CC(=O)Nc1cc(Nc2cc(C#N)cc(S(C)(=O)=O)n2)c(-c2ccc3c(n2)OCC(C)(C)O3)cn1 [Example Q63, N-(4-((4-cyano-6-(methylsulfonyl)pyridin-2-yl)amino)-5-(2,2-dimethyl-2,3-dihydro-[1,4]dioxino[2,3-b]pyridin-6-yl)pyridin-2-yl)acetamide] | 0.051 | 0.755 | 459 | 608 | – |
| CC(=O)Nc1cc(Nc2cc(C)cc(S(C)(=O)=O)n2)c(-c2ccc(F)cn2)cn1 [Example F17, N-(5-fluoro-4′-((4-methyl-6-(methylsulfonyl)pyridin-2-yl)amino)-[2,3′-bipyridin]-6′-yl)acetamide] | 0.054 | 1.25 | > 10000 | – | >8000 |
| CC(=O)Nc1cc(Nc2cc(OC(C)C)cc(S(C)(=O)=O)n2)c(-c2ccn(C3CC3)n2)cn1 [Example M2, N-(5-(1-cyclopropyl-1H-pyrazol-3-yl)-4-((4-isopropoxy-6-(methylsulfonyl)pyridin-2-yl)amino)pyridin-2-yl)acetamide] | 0.032 | 1.04 | > 10000 | >9615 | – |
| COC1CN(c2cc(Nc3cc(NC(C)=O)ncc3-c3ccc(N4C[C@@H](C)O[C@@H](C)C4)cn3)nc(S(C)(=O)=O)c2)C1 [Example C25, N-(5-(cis-2,6-dimethyl-morpholino)-4′-((4-(3-methoxy-azetidin-1-yl)-6-(methylsulfonyl)pyridin-2-yl)amino)-[2,3′-bipyridin]-6′-yl)acetamide] | 0.037 | 0.827 | 1060 | – | 1288 |
| CC(=O)Nc1cc(Nc2cc(OC3CCCC3)cc(S(C)(=O)=O)n2)c(-c2ccn(C)n2)cn1 [Example J45, N-(4-((4-(cyclopentyloxy)-6-(methylsulfonyl)pyridin-2-yl)amino)-5-(1-methyl-1H-pyrazol-3-yl)pyridin-2-yl)acetamide] | 0.028 | 0.398 | > 10000 | >25125 | – |
| CC(=O)Nc1cc(Nc2cc(C)cc(S(C)(=O)=O)n2)c(-c2ccn(C3CC3)n2)cn1 [Example M3, N-(5-(1-cyclopropyl-1H-pyrazol-3-yl)-4-((4-methyl-6-(methylsulfonyl)pyridin-2-yl)amino)pyridin-2-yl)acetamide] | 0.031 | 0.526 | 8350 | 15876 | – |
| CC(=O)Nc1cc(Nc2cc(C)cc(S(C)(=O)=O)n2)c(-c2ccc3c(n2)OCCO3)cn1 [Example Q3, N-(5-(2,3-dihydro-[1,4]dioxino[2,3-b]pyridin-6-yl)-4-((4-methyl-6-(methylsulfonyl)pyridin-2-yl)amino)pyridin-2-yl)acetamide] | 0.023 | 1.14 | > 10000 | >8771 | – |
| COc1ccncc1-c1cc(Nc2cc(NC(C)=O)ncc2-c2ccc3c(n2)OCC(C)(C)O3)nc(S(C)(=O)=O)c1 [Example Q101, N-(5-(2,2-dimethyl-2,3-dihydro-[1,4]dioxino[2,3-b]pyridin-6-yl)-4-((4-methoxy-6′-(methylsulfonyl)-[3,4′-bipyridin]-2′-yl)amino)pyridin-2-yl)acetamide] | 0.03 | 0.904 | 373 | 412 | – |
| COc1cc(Nc2cc(NC(C)=O)ncc2-c2ccc(C(F)(F)F)cn2)nc(S(C)(=O)=O)c1 [Example F20, N-(4′-((4-methoxy-6-(methylsulfonyl)pyridin-2-yl)amino)-5-(trifluoromethyl)-[2,3′-bipyridin]-6′-yl)acetamide] | 0.031 | 1.45 | > 10000 | – | >6896 |
| CC(=O)Nc1cc(Nc2cc(C#N)cc(S(C)(=O)=O)n2)c(-c2ccn(C)n2)cn1 [Example J26, N-(4-((4-cyano-6-(methylsulfonyl)pyridin-2-yl)amino)-5-(1-methyl-1H-pyrazol-3-yl)pyridin-2-yl)acetamide] | 0.023 | 5.5 | > 10000 | >1818 | – |
| CCOc1cc(Nc2cc(NC(C)=O)ncc2-c2ccc(F)cn2)nc(S(C)(=O)=O)c1 [Example F19, N-(4′-((4-ethoxy-6-(methylsulfonyl)pyridin-2-yl)amino)-5-fluoro-[2,3′-bipyridin]-6′-yl)acetamide] | 0.036 | 3.06 | > 10000 | – | >3267 |
| CC(=O)Nc1cc(Nc2cc(Oc3ccccc3)cc(S(C)(=O)=O)n2)c(-c2ccn(C)n2)cn1 [Example J39, N-(5-(1-methyl-1H-pyrazol-3-yl)-4-((6-(methylsulfonyl)-4-phenoxypyridin-2-yl)amino)pyridin-2-yl)acetamide] | 0.036 | 10.7 | > 10000 | >935 | – |
| CCn1ccc(-c2cnc(NC(C)=O)cc2Nc2cc(OCCOC)cc(S(C)(=O)=O)n2)n1 [Example M20, N-(5-(1-ethyl-1H-pyrazol-3-yl)-4-((4-(2-methoxyethoxy)-6-(methylsulfonyl)pyridin-2-yl)amino)pyridin-2-yl)acetamide] | 0.062 | 1.01 | > 10000 | >9900 | – |
| CC(=O)Nc1cc(Nc2cc(OC(C)C)cc(S(C)(=O)=O)n2)c(-c2cccc(C#N)n2)cn1 [Example A16, N-(6-cyano-4′-((4-isopropoxy-6-(methylsulfonyl)pyridin-2-yl)amino)-[2,3′-bipyridin]-6′-yl)acetamide] | 0.021 | 0.667 | > 10000 | – | >14992 |
| CC(=O)Nc1cc(Nc2cc(C)cc(S(C)(=O)=O)n2)c(-c2ccc(O[C@H]3CCOC3)cn2)cn1 [Example B21, (S)-N-(4′-((4-methyl-6-(methylsulfonyl)pyridin-2-yl)amino)-5-((tetrahydrofuran-3-yl)oxy)-[2,3′-bipyridin]-6′-yl)acetamide] | 0.047 | 0.443 | 2490 | – | 5620 |
| COc1cc(S(C)(=O)=O)nc(Nc2cc(NC(C)=O)ncc2-c2ccc3c(n2)OCC(C)(C)O3)c1OC [Example Q26, N-(4-((3,4-dimethoxy-6-(methylsulfonyl)pyridin-2-yl)amino)-5-(2,2-dimethyl-2,3-dihydro-[1,4]dioxino[2,3-b]pyridin-6-yl)pyridin-2-yl)acetamide] | 0.032 | 1.53 | 700 | 457 | – |
| CC(=O)Nc1cc(Nc2cc(OC(F)(F)F)cc(S(C)(=O)=O)c2)c(-c2ccc(C(C)(C)O)cn2)cn1 [Example H18, N-(5-(2-hydroxypropan-2-yl)-4′-((3-(methylsulfonyl)-5-(trifluoromethoxy)phenyl)amino)-[2,3′-bipyridin]-6′-yl)acetamide] | 0.032 | 5.54 | > 10000 | – | >1805 |
| CC(=O)Nc1cc(Nc2cc(OCC3COC3)cc(S(C)(=O)=O)n2)c(-c2ccn(C)n2)cn1 [Example J25, N-(5-(1-methyl-1H-pyrazol-3-yl)-4-((6-(methylsulfonyl)-4-(oxetan-3-ylmethoxy)pyridin-2-yl)amino)pyridin-2-yl)acetamide] | 0.025 | 2.91 | > 10000 | >3436 | – |
| CC(=O)Nc1cc(Nc2cc(OC(C)C)cc(S(C)(=O)=O)n2)c(-c2ccc(C#N)cn2)cn1 [Example A17, N-(5-cyano-4′-((4-isopropoxy-6-(methylsulfonyl)pyridin-2-yl)amino)-[2,3′-bipyridin]-6′-yl)acetamide] | 0.028 | 1.64 | > 10000 | – | >6097 |
| COCc1ccc(-c2cnc(NC(C)=O)cc2Nc2cc(O[C@H]3C[C@H](O)C3)cc(S(C)(=O)=O)n2)nc1 [Example E8, N-(4′-((4-((1r,3r)-3-hydroxycyclobutoxy)-6-(methylsulfonyl)pyridin-2-yl)amino)-5-(methoxymethyl)-[2,3′-bipyridin]-6′-yl)acetamide] | 0.034 | 2.86 | > 10000 | – | >3496 |
| CC(=O)Nc1cc(Nc2cccc(S(C)(=O)=O)n2)c(-c2cc(C)n(C)n2)cn1 [Example N1, N-(5-(1,5-dimethyl-1H-pyrazol-3-yl)-4-((6-(methylsulfonyl)pyridin-2-yl)amino)pyridin-2-yl)acetamide] | 0.077 | 0.247 | 2130 | 8635 | – |
| CCn1ccc(-c2cnc(NC(C)=O)cc2Nc2nc(S(C)(=O)=O)ccc2OC(C)C)n1 [Example M21, N-(5-(1-ethyl-1H-pyrazol-3-yl)-4-((3-isopropoxy-6-(methylsulfonyl)pyridin-2-yl)amino)pyridin-2-yl)acetamide] | 0.035 | 1.69 | > 10000 | >5917 | – |
